In ChEMBL document CHEMBL5096141, “Protease targeted COVID-19 drug discovery and its challenges: Insight into viral main protease (Mpro) and papain-like protease (PLpro) inhibitors” (Bioorg Med Chem, 2021):

Assays:
[1] = Inhibition of SARS-CoV PLpro expressed in Escherichia coli; design: species or system Severe acute respiratory syndrome-related coronavirus
[2] = molecular target: T1, Replicase polyprotein 1ab (Severe acute respiratory syndrome coronavirus 2, UniProt P0DTD1); assay: Inhibition of SARS-CoV-2 MPro
[3] = molecular target: T1, Replicase polyprotein 1ab; assay: Inhibition of SARS-CoV-2 PLpro expressed in Escherichia coli
[4] = Inhibition of recombinant SARS-CoV MPro; design: species or system Severe acute respiratory syndrome-related coronavirus
[5] = Inhibition of recombinant MERS-CoV MPro; design: species or system Middle East respiratory syndrome-related coronavirus
[6] = molecular target: T1, Replicase polyprotein 1ab; assay: Inhibition of recombinant SARS-CoV-2 MPro incubated for 10 mins in presence of fluorogenic substrate

COc1ccc(CNC(=O)C2CCN(Cc3cccc4ccccc34)CC2)cc1
IC50 [1]: 59000 nM

Cc1cccc(C)c1OCC(=O)N[C@@H](Cc1ccccc1)[C@@H](O)C[C@H](Cc1ccccc1)NC(=O)[C@H](C(C)C)N1CCCNC1=O [LOPINAVIR]
IC50 [2]: > 20000 nM

CC(=O)Nc1ccc(C)c(C(=O)N[C@@H](C)c2cccc3ccccc23)c1
IC50 [1]: 2600 nM
IC50 [3]: 5000 nM

CC(C)(C)OC(=O)Nc1cccn([C@H](CC2CC2)C(=O)N[C@H](C[C@@H]2CCNC2=O)C(=O)C(=O)NCc2ccccc2)c1=O
IC50 [4]: 900 nM
IC50 [5]: 580 nM

CN(C)C(=O)COC(=O)Cc1ccc(OC(=O)c2ccc(NC(=N)N)cc2)cc1 [CAMOSTAT]
IC50 [2]: > 20000 nM

O=C[C@@H](C[C@@H]1CCNC1=O)NC(=O)[C@@H](Cc1cccc(F)c1)NC(=O)c1cc2ccccc2[nH]1
IC50 [2]: 40 nM
IC50 [6]: 40 nM

Cc1ccccc1C(=O)NC(C)c1ccc2ccccc2c1 (stereo unspecified)
IC50 [1]: 20000 nM

Cc1ccc(N)cc1C(=O)N[C@@H](C)c1cccc2ccccc12
IC50 [1]: 600 nM
